In patent US20250042864A1, “SOLID STATE FORM OF TAFAMIDIS” (TEVA PHARMACEUTICALS INTERNATIONAL GMBH, priority 2021, published 2025):
≈ marks a conversion by molar mass, not a printed value.

Tests used:
Assay type in all cases: physicochemical
[1] = particle size / morphology of crystalline forms; conditions: morphology comparison of crystalline forms
[2] = water solubility of crystalline forms of tafamidis
[3] = stability to suspension (slurry) in PEG 400 at room temperature, analysed by XRPD; conditions: slurry in PEG 400, room temperature, XRPD (FIG. 6)
Description: 50 mg of samples of Form Va and Form 4 were placed into glass vials. 1 ml of PEG 400 was added at room temperature. The slurries were each mixed using a magnetic stirrer. The resulting samples were analysed by XRPD after 2 hours and after 7 days.

Row | Structure (SMILES) | particle size [1] | water solubility [2] [µg/mL] | solubility [2] [µg/mL] | time for which the form is stable in PEG 400 slurry [3]
1 | O=C(O)c1ccc2nc(-c3cc(Cl)cc(Cl)c3)oc2c1 [Form 1, 2-(3,5-dichlorophenyl)-1,3-benzoxazole-6-carboxylic acid] | up to 100 μm |  |  | 
2 | O=C(O)c1ccc2nc(-c3cc(Cl)cc(Cl)c3)oc2c1 [Form 6, 2-(3,5-dichlorophenyl)-1,3-benzoxazole-6-carboxylic acid] | > 100 μm |  |  | 
3 | O=C(O)c1ccc2nc(-c3cc(Cl)cc(Cl)c3)oc2c1 [Form V, 2-(3,5-dichlorophenyl)-1,3-benzoxazole-6-carboxylic acid] |  | 1.47 (≈ 4.77 µM) |  | 
4 | O=C(O)c1ccc2nc(-c3cc(Cl)cc(Cl)c3)oc2c1 [Form Va, 2-(3,5-dichlorophenyl)-1,3-benzoxazole-6-carboxylic acid] | 5-10 μm |  | 2.21 (≈ 7.17 µM) | at least 7 days
